Reference: US20250002489A1, “BIFUNCTIONAL COMPOUNDS FOR DEGRADING ITK VIA UBIQUITIN PROTEOSOME PATHWAY” (NURIX THERAPEUTICS, INC., priority 2021, published 2025)

How the values were obtained:
[1] = target: T1, ITK (C-terminal HiBiT-tagged Molt4 cells) (Homo sapiens, UniProt Q08881); assay: ITK Degradation HiBiT Assay; format: cell-based; conditions: for DC50: 4 hrs incubation, best fit IC50 used as DC50; for Dmax: MOLT-4, 4 hrs incubation
T1 construct: expressed in transfected cells; host or cells: Molt4 (ATCC CRL-1552), monoclonal clone 1C10, engineered to express HiBiT-tagged ITK
T1 sequence (Q08881 1-620): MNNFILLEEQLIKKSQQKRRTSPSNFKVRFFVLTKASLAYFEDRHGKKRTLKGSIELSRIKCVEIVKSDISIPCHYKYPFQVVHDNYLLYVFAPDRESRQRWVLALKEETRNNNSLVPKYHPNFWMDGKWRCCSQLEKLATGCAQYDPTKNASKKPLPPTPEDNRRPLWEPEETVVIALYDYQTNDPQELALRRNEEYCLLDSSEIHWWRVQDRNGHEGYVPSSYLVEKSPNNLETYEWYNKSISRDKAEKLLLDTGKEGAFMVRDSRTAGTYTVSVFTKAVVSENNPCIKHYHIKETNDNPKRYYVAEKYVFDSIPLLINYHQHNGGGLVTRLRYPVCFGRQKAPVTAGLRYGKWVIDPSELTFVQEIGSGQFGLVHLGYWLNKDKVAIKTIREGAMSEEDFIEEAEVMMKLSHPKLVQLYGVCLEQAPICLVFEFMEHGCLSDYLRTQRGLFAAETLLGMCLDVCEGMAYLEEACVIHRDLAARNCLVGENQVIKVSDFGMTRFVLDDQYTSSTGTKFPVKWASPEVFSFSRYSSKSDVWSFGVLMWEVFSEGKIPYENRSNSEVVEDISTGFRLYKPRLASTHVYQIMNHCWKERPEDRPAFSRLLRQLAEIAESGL
Description: Compounds provided herein were assayed in vitro with ITK HiBit cell lines. Compound dilution series (11-point, 5-fold dilutions in DMSO, columns 2-12 with replicate in rows A/B, C/D, E/F, G, and H at 2000× the final required concentrations were prepared in 96-well plate (Falcon, cat. no. 353077). Column 1, rows A-H were control DMSO. The 2000× solutions ranged from 2 mM to 1.024 nM (final assay concentration range 1 μM to 0.512 pM). The 2000×solutions were added to cells in 10 μL volume, for a final DMSO concentration of 0.5% and final assay compound concentration of 1×. For the cells, C-terminal HiBiT-tagged Molt4 cells (ATCC CRL-1552, monoclonal cell line clone 1C10) were plated at 1×10^6 cells/mL, 100 μL/well ([…]) in complete RPMI (10% FBS, 1% L-glutamine). The cells were incubated with compounds 1-25, 31, and 31 for 4 hrs at 32° C./6% CO2.
Following incubation, 100 μL of complete Nano-Glo HiBiT Lytic Detection Reagent (Nano-Glo HiBiT Lytic Buffer with 1:50 Nano-Glo HiBiT Lytic Substrate and 1:100 LgBiT Protein; Promega cat. no. N3O40) was added. Cells were further incubated for 10 min at room temperature. Luminescence units (LU) were read on an EnVision plate reader (Perkin Elmer, 0.1 sec per well). Percent ITK remaining per sample was calculated as follows: […]
Using Graphpad Prism, % ITK remaining values were plotted as a function of compound concentration. To determine DC50 and Dmax values, resulting curves were fit to the Prism curve-fitting equation “log(inhibitor) vs response−Variable slope (four parameters)” (reported best fit value IC50 used as DC50). ITK was measured with antibody-based MSD (Meso-Scale Discovery) assays shown below.

[2] = target: T2, ITK (Jurkat or Molt4 cells) (Homo sapiens, UniProt Q08881); assay: ITK Degradation MSD (Meso Scale Discovery) Assay; format: cell-based; conditions: 4 or 6 hrs incubation; for DC50: best fit IC50 used as DC50
T2 construct: either human Jurkat (Clone E6-1 ATCC TIB-152) or Motl4 (ATCC CRL-1552), were plated; endogenous in cells; host or cells: Jurkat Clone E6-1 (ATCC TIB-152) or Molt4 (ATCC CRL-1552)
T2 sequence (Q08881 1-620): T1 sequence (Q08881 1-620)
Procedure, shortened: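 Jurkat or Molt4 cells at 1×10^6 cells/mL in RPMI/10% FBS treated 4 or 6 hr at 32° C with 7-point, 5-fold compound dilutions (0.5% DMSO). Lysate ITK quantified by MSD sandwich ECL immunoassay; % ITK remaining fitted by four-parameter curve, IC50 taken as DC50, plus Dmax.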

[3] = Mouse PK analysis, plasma concentration by LC/MS/MS after oral administration; format: in vivo; conditions: mice; for concentration at 2 h: timepoint 2 h; for concentration at 6 h: timepoint 6 h
Description: Mouse PK Analysis Compounds 17 and 18 were administered to mice orally. After six hours or twenty-four hours, splenocyte cells were harvested. ITK was evaluated by Western blotting. Plasma concentrations were determined by LC/MS/MS. Plasma samples were protein precipitated by addition of 100 μl of acetonitrile containing 50 ng/ml of internal standard. The resulting mixture was vortexed and centrifuged at 4000 rpm for five minutes. An aliquot of the resultant supernatant (75 μl) was added to 75 μl of 0.1% formic acid in water to constitute the final sample for injection. Samples were injected on a Shimadzu Exion LC Binary Gradient AD Pump HLPC system connected to a Sciex QTRAP 6500+ mass spectrometer. 5 μL of sample was injected onto a Waters Acquity UPLC BEH C18 column 130A (2.1×30 mm, […]) at 40° C. utilizing a flow rate of 700 μL/minute.
Mobile Phase A was 0.1% formic acid in water and mobile phase B was 0.1% formic acid in acetonitrile. A linear gradient of 15-95% B over 1.0 minute was used. The mass spectrometer was operated in positive ion electrospray mode with multiple reaction monitoring for maximum sensitivity. Sciex Analyst software (version 1.6.3) was used for LC/MS/MS instrument control and acquisition. Compound concentration was determined against a standard curve of internal standard versus compound peak area ratio. Noncompartmental PK parameters were determined using Phoenix 32 software (version 8.2.0.4383) from Certara. Plasma concentrations from the LC/MS/MS analyses, dose, route of administration, and desired units were utilized for PK parameter calculations.

Row | Structure (SMILES) | DC50 [1] | Dmax [1] | Dmax [2] | DC50 [2] | concentration at 2 h [3] | concentration at 6 h [3]
1 | Cc1ncsc1-c1ccc([C@H](C)NC(=O)[C@@H]2C[C@@H](O)CN2C(=O)[C@@H](NC(=O)CCCCCC(=O)N2CC([C@@H](c3ccccc3)n3cc(NC(=O)c4n[nH]c5c4C[C@@H]4C(F)(F)[C@]4(C)C5)cn3)C2)C(C)(C)C)cc1 [Compound 29, (4aS,5aR)-5,5-difluoro-N-(1-((S)-(1-(7-(((S)-1-((2S,4R)-4-hydroxy-2-(((S)-1-(4-(4-methylthiazol-5-yl)phenyl)ethyl)carbamoyl)pyrrolidin-1-yl)-3,3-dimethyl-1-oxobutan-2-yl)amino)-7-oxoheptanoyl)azetidin-3-yl)(phenyl)methyl)-1H-pyrazol-4-yl)-5a-methyl-1,4,4a,5,5a,6-hexahydrocyclopropa[f]indazole-3-carboxamide] | 19.7 nM | 84% |  |  |  | 
2 | Cc1ncsc1-c1ccc(CNC(=O)[C@@H]2C[C@@H](O)CN2C(=O)[C@@H](NC(=O)C2(F)CC2)C(C)(C)C)c(OCCCCCC(=O)N2CC([C@@H](c3ccccc3)n3cc(NC(=O)c4n[nH]c5c4C[C@@H]4C(F)(F)[C@]4(C)C5)cn3)C2)c1 [Compound 18, (4aS,5aR)-5,5-difluoro-N-(1-((S)-(1-(6-(2-(((2S,4R)-1-((S)-2-(1-fluorocyclopropane-1-carboxamido)-3,3-dimethylbutanoyl)-4-hydroxypyrrolidine-2-carboxamido)methyl)-5-(4-methylthiazol-5-yl)phenoxy)hexanoyl)azetidin-3-yl)(phenyl)methyl)-1H-pyrazol-4-yl)-5a-methyl-1,4,4a,5,5a,6-hexahydrocyclopropa[f]indazole-3-carboxamide] |  |  | 95.1% | 1.47 nM | 6.1 nM | 16.2 nM
3 | Cc1ncsc1-c1ccc([C@H](C)NC(=O)[C@@H]2C[C@@H](O)CN2C(=O)[C@@H](NC(=O)CCCCCCCC(=O)N2CC([C@@H](c3ccccc3)n3cc(NC(=O)c4n[nH]c5c4C[C@@H]4C(F)(F)[C@]4(C)C5)cn3)C2)C(C)(C)C)cc1 [Compound 28, (4aS,5aR)-5,5-difluoro-N-(1-((S)-(1-(9-(((S)-1-((2S,4R)-4-hydroxy-2-(((S)-1-(4-(4-methylthiazol-5-yl)phenyl)ethyl)carbamoyl)pyrrolidin-1-yl)-3,3-dimethyl-1-oxobutan-2-yl)amino)-9-oxononanoyl)azetidin-3-yl)(phenyl)methyl)-1H-pyrazol-4-yl)-5a-methyl-1,4,4a,5,5a,6-hexahydrocyclopropa[f]indazole-3-carboxamide] | 1.41 nM | 91% |  |  |  | 

Results, then the compound that gave them:

Row | DC50 [1] | Dmax [1] | Dmax [2] | DC50 [2] | concentration at 2 h [3] | concentration at 6 h [3] | Structure (SMILES)
4 | 6.61 nM |  |  |  |  |  | Cc1ncsc1-c1ccc([C@H](C)NC(=O)[C@@H]2C[C@@H](O)CN2C(=O)[C@@H](NC(=O)CCN2CCC(CCC(=O)N3CC([C@@H](c4ccccc4)n4cc(NC(=O)c5n[nH]c6c5C[C@@H]5C(F)(F)[C@]5(C)C6)cn4)C3)CC2)C(C)(C)C)cc1 [Compound 26, (4aS,5aR)-5,5-difluoro-N-(1-((S)-(1-(3-(1-(3-(((S)-1-((2S,4R)-4-hydroxy-2-(((S)-1-(4-(4-methylthiazol-5-yl)phenyl)ethyl)carbamoyl)pyrrolidin-1-yl)-3,3-dimethyl-1-oxobutan-2-yl)amino)-3-oxopropyl)piperidin-4-yl)propanoyl)azetidin-3-yl)(phenyl)methyl)-1H-pyrazol-4-yl)-5a-methyl-1,4,4a,5,5a,6-hexahydrocyclopropa[f]indazole-3-carboxamide]
5 |  |  | 95.7% | 4.51 nM | 1.8 nM | 4.5 nM | Cc1ncsc1-c1ccc(CNC(=O)[C@@H]2C[C@@H](O)CN2C(=O)[C@@H](NC(=O)C2(F)CC2)C(C)(C)C)c(OCCOCCC(=O)N2CC([C@@H](c3ccccc3)n3cc(NC(=O)c4n[nH]c5c4C[C@@H]4C(F)(F)[C@]4(C)C5)cn3)C2)c1 [Compound 17, (4aS,5aR)-5,5-difluoro-N-(1-((S)-(1-(3-(2-(2-(((2S,4R)-1-((S)-2-(1-fluorocyclopropane-1-carboxamido)-3,3-dimethylbutanoyl)-4-hydroxypyrrolidine-2-carboxamido)methyl)-5-(4-methylthiazol-5-yl)phenoxy)ethoxy)propanoyl)azetidin-3-yl)(phenyl)methyl)-1H-pyrazol-4-yl)-5a-methyl-1,4,4a,5,5a,6-hexahydrocyclopropa[f]indazole-3-carboxamide]
6 |  | 35% |  |  |  |  | Cc1ncsc1-c1ccc(CNC(=O)[C@@H]2C[C@@H](O)CN2C(=O)[C@@H](NC(=O)C2(F)CC2)C(C)(C)C)c(OC2CN(c3ccnc(N4CC([C@@H](c5ccccc5)n5cc(NC(=O)c6n[nH]c7c6C[C@@H]6C(F)(F)[C@]6(C)C7)cn5)C4)c3)C2)c1 [Compound 35, (4aS,5aR)-5,5-difluoro-N-(1-((S)-(1-(4-(3-(2-(((2S,4R)-1-((S)-2-(1-fluorocyclopropane-1-carboxamido)-3,3-dimethylbutanoyl)-4-hydroxypyrrolidine-2-carboxamido)methyl)-5-(4-methylthiazol-5-yl)phenoxy)azetidin-1-yl)pyridin-2-yl)azetidin-3-yl)(phenyl)methyl)-1H-pyrazol-4-yl)-5a-methyl-1,4,4a,5,5a,6-hexahydrocyclopropa[f]indazole-3-carboxamide]
7 |  | 35% |  |  |  |  | Cc1ncsc1-c1ccc([C@H](C)NC(=O)[C@@H]2C[C@@H](O)CN2C(=O)[C@@H](NC(=O)CCCCCCCCCC(=O)N2CC([C@@H](c3ccccc3)n3cc(NC(=O)c4n[nH]c5c4C[C@@H]4C(F)(F)[C@]4(C)C5)cn3)C2)C(C)(C)C)cc1 [Compound 27, (4aS,5aR)-5,5-difluoro-N-(1-((S)-(1-(11-(((S)-1-((2S,4R)-4-hydroxy-2-(((S)-1-(4-(4-methylthiazol-5-yl)phenyl)ethyl)carbamoyl)pyrrolidin-1-yl)-3,3-dimethyl-1-oxobutan-2-yl)amino)-11-oxoundecanoyl)azetidin-3-yl)(phenyl)methyl)-1H-pyrazol-4-yl)-5a-methyl-1,4,4a,5,5a,6-hexahydrocyclopropa[f]indazole-3-carboxamide]
